Source: patent US7514257B2, “Zinc finger transcription factor differentiation proteins” (ToolGen, Inc., priority 2001, dated 2009)

How the values were obtained:
human insulin gene [1] = test: Insulin gene expression in transiently transfected HeLa cells; format: cell-based
Description: To test whether 08_D04-p65 can induce insulin gene expression in different human cell lines, we transiently transfected a nucleic acid encoding 08_D04-p65 into HeLa cells. Expression of the nucleic acid in HeLa cells caused a 80 fold increase in expression of the insulin gene.
Nucleic acids encoding certain zinc finger proteins were also expressed in HeLa cells. pLFD-p65 containing 08-D04 ZFP was transiently transfected into HeLa cells using LIPOFECTAMINE™ 2000 (Invitrogen).

human insulin gene [2] = test: Insulin gene expression in stably transfected 293 cells (DNA microarray); format: cell-based; conditions: stably transfected human 293 cells
Description: We stably transfected nucleic acids encoding chimeric zinc finger proteins in human 293 cell lines, and analyzed transformed cells using DNA microarray experiments to characterize genes regulated by each chimeric zinc finger protein (see FIGS. 4, 5, and 9). We have identified a chimeric zinc finger protein (08_D04-p65) that increases the expression of human insulin gene more than 60 fold.
Nucleic acids encoding zinc finger proteins were stably introduced into FlpTRex-293 cell lines (Invitrogen) essentially as described in the manufacturer's protocols. Briefly, the HindIII-XhoI fragment from the pLFD-p65 or pLFD-Kid vectors was subcloned into pcDNA5/FRT/TO (Invitrogen Calif.). This fragment includes a sequence encoding the zinc finger proteins. Resulting plasmids were cotransfected into FlpTRex-293 cells with pOG44 (Invitrogen). Stable integrants that express ZFP-TFs upon doxycycline induction were obtained.
DNA microarrays containing 7458 human EST clones were obtained from Genomictree (Korea). FlpTRex-293 cells stably expressing ZFP-TFs were grown with (+Dox) or without Dox) 1 μg/ml Doxycycline for 48 hours. Total RNA was prepared from each sample. RNA from the −Dox sample was used as a reference (Cy3), and +Dox as the experimental sample (Cy5). […] Spots with sum of median less than 500 were colored red and not analyzed.

08_D04-p65: ZFP RSHR-RDHT-VSSR with p65 activation domain (SEQ ID NO:6)
increase in expression of the insulin gene (human insulin gene [1]): 80 fold | increase in expression of human insulin gene (human insulin gene [2]): more than 60 fold
